Experimental data: the supplement of paper PMC10307832

Key:
Assay in all cases: relative viability (nuclei count vs DMSO), 5 days (fraction); higher = more cells survive
QS11 + Lapatinib = compound: C1CC2=C(C1)C=C(C=C2)OC3=NC(=C4C(=N3)N(C=N4)CC5=CC=C(C=C5)C6=CC=CC=C6)N[C@@H](CC7=CC=CC=C7)CO [QS11] + CS(=O)(=O)CCNCc1ccc(-c2ccc3ncnc(Nc4ccc(OCc5cccc(F)c5)c(Cl)c4)c3c2)o1 [Lapatinib] (partner 2 µM)
Outline: (§1)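 Relative viability is defined as nuclei in treated wells over nuclei in vehicle wells. Duplicate plates were run and medians reported. Lung cancer cell lines in 1536-well plates were dosed by pin tool one day after seeding, with one drug or with a fixed anchor-drug dose plus five library-drug doses (not always all listed) in √10 steps, and nuclei were counted after 5 days.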

QS11 + Luminespib = compound: C1CC2=C(C1)C=C(C=C2)OC3=NC(=C4C(=N3)N(C=N4)CC5=CC=C(C=C5)C6=CC=CC=C6)N[C@@H](CC7=CC=CC=C7)CO [QS11] + CCNC(=O)c1noc(-c2cc(C(C)C)c(O)cc2O)c1-c1ccc(CN2CCOCC2)cc1 [Luminespib] (partner 0.01 µM)
Outline: as §1

QS11 + AZD7762 = compound: C1CC2=C(C1)C=C(C=C2)OC3=NC(=C4C(=N3)N(C=N4)CC5=CC=C(C=C5)C6=CC=CC=C6)N[C@@H](CC7=CC=CC=C7)CO [QS11] + NC(=O)Nc1cc(-c2cccc(F)c2)sc1C(=O)N[C@H]1CCCNC1 [AZD7762] (partner 0.2 µM)
Outline: as §1

[1] = compound: C[As](C)SC[C@H](NC(=O)CC[C@H](N)C(=O)O)C(=O)NCC(=O)O [Darinaparsin] + CS(=O)(=O)N1CCN(Cc2cc3nc(-c4cccc5[nH]ncc45)nc(N4CCOCC4)c3s2)CC1 [Pictilisib] (partner 1 µM)
Outline: as §1

Row | Cell Line | relative viability (QS11 + Lapatinib; first compound 0.08 µM) | relative viability (QS11 + Lapatinib; first compound 0.253 µM) | relative viability (QS11 + Lapatinib; first compound 0.8 µM) | relative viability (QS11 + Lapatinib; first compound 2.53 µM) | relative viability (QS11 + Lapatinib; first compound 8 µM) | relative viability (QS11 + Luminespib; first compound 0.08 µM) | relative viability (QS11 + Luminespib; first compound 0.253 µM) | relative viability (QS11 + Luminespib; first compound 0.8 µM) | relative viability (QS11 + Luminespib; first compound 2.53 µM) | relative viability (QS11 + Luminespib; first compound 8 µM) | relative viability (QS11 + AZD7762; first compound 0.253 µM) | relative viability (QS11 + AZD7762; first compound 0.8 µM) | relative viability (QS11 + AZD7762; first compound 2.53 µM) | relative viability (QS11 + AZD7762; first compound 8 µM) | relative viability ([1]; first compound 0.08 µM) | relative viability ([1]; first compound 0.8 µM) | relative viability ([1]; first compound 2.53 µM) | relative viability ([1]; first compound 8 µM) | relative viability (QS11 + AZD7762; first compound 0.08 µM)
1 | PC-3 [JPC-3] | 0.464 | 0.409 | 0.436 | 0.5 | 0.435 | 0.708 | 0.729 | 0.663 | 0.718 | 0.703 | 0.767 | 0.736 | 0.792 | 0.832 | 0.747 | 0.674 | 0.63 | 0.877 | 
2 | HCC-827 | 0.176 | 0.226 | 0.158 | 0.243 | 0.227 | 0.587 | 0.508 | 0.597 | 0.694 | 0.675 | 0.201 | 0.234 | 0.307 | 0.187 | 1.06 | 0.907 | 0.901 | 1.01 | 0.194
3 | NCI-H1666 | 0.607 | 0.398 | 0.542 | 0.578 | 0.42 | 1.01 | 1.1 | 0.702 | 0.728 | 0.519 | 0.806 | 0.682 | 0.727 | 0.63 | 0.418 | 0.458 | 0.454 | 0.53 | 0.959
4 | NCI-H322M | 0.573 | 0.642 | 0.559 | 0.576 | 0.628 | 0.823 | 0.863 | 0.911 | 0.99 | 1.24 | 0.515 | 0.477 | 0.53 | 0.552 | 0.58 | 0.495 | 0.469 | 0.59 | 0.525
5 | NCI-H838 | 0.944 | 0.918 | 0.68 | 0.899 | 0.904 | 0.284 | 0.246 | 0.282 | 0.289 | 0.275 | 0.87 | 0.844 | 0.905 | 1.03 | 0.481 | 0.407 | 0.39 | 0.472 | 1
6 | NCI-H596 | 1 | 1.02 | 1.02 | 1.03 | 1.05 | 0.87 | 1.09 | 0.919 | 0.829 | 0.934 | 0.94 | 1.22 | 1.03 | 1.27 | 0.396 | 0.397 | 0.416 | 0.378 | 1.07
7 | NCI-H647 | 0.939 | 1.12 | 0.916 | 1.1 | 0.711 | 0.155 | 0.321 | 0.118 | 0.171 | 0.141 | 0.302 | 0.592 | 0.385 | 0.565 | 0.449 | 0.396 | 0.488 | 0.47 | 0.441
